The term LD50 denotes the dose expected to kill half of the subjects tested.

This is an account of results in patent US4008274A, “Certain salicylanilides” (Yoshitomi Pharmaceutical Industries, Ltd., priority 1973, dated 1977).

Structures are written as SMILES. In brackets after ≈: the same amount, converted by molar mass.

One data set concerns barnacles. Kind of data set: Barnacle Killing Activity. It counts as in vivo. Particulars: after 48 hours, out of 30 living barnacles, 20°±2° C. On the procedure:
Seawater (4 liters) was poured into a glass vessel (15 × 20 × 21 cm). The water temperature was maintained at 20°±2° C. Clean air was introduced at a rate of 150 ml/min throughout the experiment. Then 1 ml (or 5 ml) of a solution prepared by dissolving 0.400 g of the test compound in 100 ml of 4:1 ethanol-acetone mixture was dropped into the vessel to attain the concentration of 1 ppm (or 5 ppm). As the control run, 1 ml (or 5 ml) of the solvent was dropped into the vessel. Of scores of barnacles sticking to a stone obtained from the sea-shore 30 living barnacles were selected at randum, the rest of the barnacles on the stone being neglected for the experiment. Such stone was put in the vessel. After 48 hours, the number of dead barnacles was counted.

In data set [1] the test system is Bacillus subtilis PCI 219. Kind of data set: Antibacterial Activity (agar dilution method), Bacillus subtilis PCI 219. It counts as cell-based. As to conditions: PCI219, 48 h; Bacillus subtilis PCI 219, nutrient agar, 37° C, 2 days; read-out: minimal inhibitory concentration (MIC). On the procedure: (§1) The minimal inhibitory concentration (MIC; mcg/ml) of the test compounds determined by the agar dilution method on the nutrient agar medium is shown in TABLE III. The procedure is as follows: The test compound was mixed with the nutrient agar medium and the medium was allowed to coagulate. A solution containing Staphylococcus aureus FDA 2099 or Bacillus subtilis PCI 219 was inoculated into the medium and cultivated at 37° C for 2 days.
(In agar dilution, organisms are placed on agar that contains the substance at set levels.)

The test system of a further data set is Spirogyra. Nature of the data set: Algicidal Activity. More on the design: key: 0: Brown algae on the bottom of the vessel. Destroyed and brown spiral chloroplasts (under a microscope).; 10: Vigorous algae growth. Vivid green spiral chloroplasts (under a microscope). It counts as in vivo. As to conditions: 48 hours, 20°±2° C. The method, then:
Tap water (4 liters) was poured into a glass vessel (15 × 20 × 21 cm). The vessel was kept in a greenhouse maintained at 20°±2° C. Then 1 ml (or 5 ml) of a solution prepared by dissolving 0.400 g of the test compound in 100 ml of 4:1 ethanol-acetone mixture was dropped into the vessel to attain the concentration of 1 ppm (or 5 ppm). As the control run, 1 ml (or 5 ml) of the solvent was dropped into the vessel. About 5 g of wet Spirogyra was put in the vessel. Clean air was introduced at a rate of 150 ml/min for 48 hours.
The algicidal acticity was evaluated by the following criteria:
0: Brown algae on the bottom of the vessel. Destroyed and brown spiral chloroplasts (under a microscope).
10: Vigorous algae growth. Vivid green spiral chloroplasts (under a microscope).

The subject of data set [2] is Staphylococcus aureus FDA 2099. Nature of the data set: Antibacterial Activity (agar dilution method), Staphylococcus aureus FDA 2099. As to conditions: FDA2099, 48 h; Staphylococcus aureus FDA 2099, nutrient agar, 37° C, 2 days; read-out: minimal inhibitory concentration (MIC). It counts as cell-based. The method, then:
as §1

Another data set can be described thus: Percutaneous toxicity. Particulars: mouse, in vivo, topical or ocular; dd-strain female mice, 10% solution in acetone on shaved backs. The method, then:
Percutaneous LD50 values were determined in dd-strain female mice by applying a 10% solution of the test compound in acetone on the shaved backs.

A short description of data set [3]: Oral toxicity (Litchfield-Wilcoxon method). As to conditions: mouse, in vivo, dd-strain female mice, 25% suspension in water containing 0.5% carboxymethylcellulose. The method, then:
Oral LD50 values were determined in dd-strain female mice according to the conventional Litchfield-Wilcoxon method. The test compound was administered as a 25% suspension in water containing 0.5% carboxymethylcellulose.

Turning to `Cc1ccc(O)c(C(=O)Nc2ccc([N+](=O)[O-])cc2C)c1` [Test Compound 1, 2',5-dimethyl-4'-nitrosalicylanilide], the results for the “number of dead barnacles” value in the data set on barnacles (1 ppm) and with barnacles (5 ppm) were 10 and 30, respectively. The figures for the MIC in data set [1] and in data set [2] were 2 µg/mL (≈ 6.99 µM) and 5 µg/mL (≈ 17.5 µM), respectively. Also, the algicidal activity score in the data set with Spirogyra (1 ppm) and in the data set with Spirogyra (5 ppm) was 0 throughout.

For the compound `Cc1ccc(O)c(C(=O)Nc2ccc([N+](=O)[O-])c(C)c2)c1` [Test Compound 2, 3',5-Dimethyl-4'-nitrosalicylanilide], the “number of dead barnacles” value with barnacles (1 ppm) was 2; in the data set on barnacles (5 ppm) it was 30. Moreover, the algicidal activity score with Spirogyra (1 ppm) and with Spirogyra (5 ppm) was 0 each time.

Regarding `Cc1cc([N+](=O)[O-])ccc1NC(=O)c1cc(C(C)(C)C)ccc1O` [Test Compound 10, 5-Tert-butyl-2'-methyl-4'-nitrosalicylanilide], the LD50 was over 5000 mg/kg in “Percutaneous toxicity” and over 10000 mg/kg in data set [3].

Take `Cc1cccc(NC(=O)c2cc(C(C)(C)C)ccc2O)c1C` [Test Compound 16, 5-Tert-butyl-2',3'-dimethylsalicylanilide]: the figures for the median lethal dose (LD50) (in “Percutaneous toxicity”; in data set [3]) were over 5000 mg/kg and over 10000 mg/kg, respectively.

For the compound `O=C(Nc1ccc(Br)cc1)c1cc(Br)cc(Br)c1O` [Tribromsalan, 3,4',5-Tribromosalicylanilide, reference compound], the results for the median lethal dose (LD50) (in the data set “Percutaneous toxicity”; in data set [3]) were over 2000 mg/kg and 124 mg/kg, respectively.

Regarding `Cc1ccc(O)c(C(=O)Nc2cc([N+](=O)[O-])ccc2C)c1` [compound 3], the “number of dead barnacles” value with barnacles (1 ppm) was 3; in the data set on barnacles (5 ppm), 30. Besides, the MIC in data set [1] and in data set [2] was 10 µg/mL (≈ 34.9 µM) each time.

`Cc1ccc(O)c(C(=O)Nc2ccc([N+](=O)[O-])cc2)c1` [compound 4]: the algicidal activity score in the data set on Spirogyra (1 ppm) is recorded as 10; in the data set with Spirogyra (5 ppm), 0.

As to `CSc1cccc(NC(=O)c2cc(C)ccc2O)c1` [compound 5], the figures for the “number of dead barnacles” value in the data set on barnacles (1 ppm) and in the data set on barnacles (5 ppm) were 2 and 18, respectively.

For `COc1cc([N+](=O)[O-])ccc1NC(=O)c1cc(C)ccc1O` [compound 6], the figures for the “number of dead barnacles” value in the data set on barnacles (1 ppm) and in the data set with barnacles (5 ppm) were 2 and 20, respectively.

On to `Cc1cc([N+](=O)[O-])ccc1NC(=O)c1cc(C(C)C)ccc1O` [compound 7], for which the “number of dead barnacles” value in the data set on barnacles (1 ppm) stood at 14; in the data set with barnacles (5 ppm), 30. Besides, the MIC in data set [1] and in data set [2] was 5 µg/mL (≈ 15.9 µM) each time. Further, the algicidal activity score in the data set on Spirogyra (1 ppm) and with Spirogyra (5 ppm) was 0 in each case.

`Cc1ccc([N+](=O)[O-])cc1NC(=O)c1cc(C(C)C)ccc1O` [compound 8]: the “number of dead barnacles” value is reported as 16 in the data set on barnacles (1 ppm) and 30 in the data set with barnacles (5 ppm). The MIC in data set [1] and in data set [2] was 5 µg/mL (≈ 15.9 µM) in each case. Moreover, the algicidal activity score in the data set with Spirogyra (1 ppm) is on record as 10; with Spirogyra (5 ppm) it was 0.

Turning to `CC(C)c1ccc(O)c(C(=O)Nc2ccc([N+](=O)[O-])cc2)c1` [compound 9], the figures for the “number of dead barnacles” value with barnacles (1 ppm) and with barnacles (5 ppm) were 20 and 30, respectively. Moreover, the MIC in data set [1] and in data set [2] was 5 µg/mL (≈ 16.6 µM) throughout. Moreover, the algicidal activity score in the data set on Spirogyra (1 ppm) and in the data set on Spirogyra (5 ppm) was 0 in each case.

Take `Cc1cc([N+](=O)[O-])ccc1NC(=O)c1cc(C(C)(C)C)ccc1O` [compound 10]: the “number of dead barnacles” value with barnacles (1 ppm) and with barnacles (5 ppm) was 30 in each case. The MIC in data set [1] was 0.5 µg/mL (≈ 1.52 µM); in data set [2], 1 µg/mL (≈ 3.05 µM). In addition, the algicidal activity score in the data set with Spirogyra (1 ppm) and in the data set with Spirogyra (5 ppm) was 0 in each case.

`Cc1cc(NC(=O)c2cc(C(C)(C)C)ccc2O)ccc1[N+](=O)[O-]` [compound 11]: the “number of dead barnacles” value in the data set on barnacles (1 ppm) and in the data set with barnacles (5 ppm) was 30 each time. Moreover, the MIC in data set [1] and in data set [2] was 1 µg/mL (≈ 3.05 µM) each time. Further, the algicidal activity score in the data set with Spirogyra (1 ppm) was determined as 10; in the data set with Spirogyra (5 ppm), 0.

For `Cc1ccc([N+](=O)[O-])cc1NC(=O)c1cc(C(C)(C)C)ccc1O` [compound 12], the “number of dead barnacles” value in the data set with barnacles (1 ppm) and in the data set on barnacles (5 ppm) was 30 each time. Moreover, the MIC in data set [1] and in data set [2] was 2 µg/mL (≈ 6.09 µM) each time. The algicidal activity score in the data set with Spirogyra (1 ppm) amounted to 10; in the data set on Spirogyra (5 ppm), 0.

For the compound `CC(C)(C)c1ccc(O)c(C(=O)Nc2ccc([N+](=O)[O-])cc2)c1` [compound 13], the figures for the “number of dead barnacles” value in the data set with barnacles (1 ppm) and in the data set with barnacles (5 ppm) were 22 and 30, respectively. Moreover, the MIC in data set [1] worked out at 1 µg/mL (≈ 3.18 µM); in data set [2], 2 µg/mL (≈ 6.36 µM).

As for `CSc1cccc(NC(=O)c2cc(C(C)(C)C)ccc2O)c1` [compound 14], the “number of dead barnacles” value in the data set with barnacles (1 ppm) worked out at 3; in the data set with barnacles (5 ppm) it was 30. The MIC in data set [1] and in data set [2] was 5 µg/mL (≈ 15.9 µM) throughout. In addition, the algicidal activity score stood at 10 with Spirogyra (1 ppm) and 0 in the data set on Spirogyra (5 ppm).

As for `COc1cc([N+](=O)[O-])ccc1NC(=O)c1cc(C(C)(C)C)ccc1O` [compound 15], the “number of dead barnacles” value turned out to be 9 with barnacles (1 ppm) and 30 with barnacles (5 ppm).

As for `Cc1cccc(NC(=O)c2cc(C(C)(C)C)ccc2O)c1C` [compound 16], the “number of dead barnacles” value in the data set with barnacles (1 ppm) came to 4; in the data set with barnacles (5 ppm), 30. The results for the algicidal activity score in the data set on Spirogyra (1 ppm) and in the data set with Spirogyra (5 ppm) were 10 and 0, respectively.

`COc1ccc(NC(=O)c2cc(C(C)(C)C)ccc2O)cc1` [compound 17]: the algicidal activity score is recorded as 10 with Spirogyra (1 ppm) and 0 in the data set with Spirogyra (5 ppm).

Regarding `CCC(C)(C)c1ccc(O)c(C(=O)Nc2ccc([N+](=O)[O-])cc2C)c1` [compound 18], the “number of dead barnacles” value with barnacles (1 ppm) and with barnacles (5 ppm) was 30 throughout. Besides, the MIC in data set [1] and in data set [2] was 0.5 µg/mL (≈ 1.46 µM) each time. Besides, the algicidal activity score in the data set on Spirogyra (1 ppm) and with Spirogyra (5 ppm) was 0 each time.

`CCC(C)(C)c1ccc(O)c(C(=O)Nc2ccc([N+](=O)[O-])c(C)c2)c1` [compound 19]: the “number of dead barnacles” value with barnacles (1 ppm) was 2; with barnacles (5 ppm), 30. Besides, the MIC in data set [1] and in data set [2] was 0.5 µg/mL (≈ 1.46 µM) in each case. Further, the algicidal activity score with Spirogyra (1 ppm) and in the data set on Spirogyra (5 ppm) was 0 throughout.

With `CCC(C)(C)c1ccc(O)c(C(=O)Nc2cc([N+](=O)[O-])ccc2C)c1` [compound 20], the “number of dead barnacles” value with barnacles (1 ppm) and with barnacles (5 ppm) was 30 each time. Moreover, the MIC in data set [1] and in data set [2] was 1 µg/mL (≈ 2.92 µM) throughout. Besides, the algicidal activity score with Spirogyra (1 ppm) and in the data set with Spirogyra (5 ppm) was 0 in each case.

Regarding `CCC(C)(C)c1ccc(O)c(C(=O)Nc2ccc([N+](=O)[O-])cc2)c1` [compound 21], the “number of dead barnacles” value with barnacles (1 ppm) is 25; with barnacles (5 ppm), 30. For the same compound, the MIC in data set [1] and in data set [2] was 1 µg/mL (≈ 3.05 µM) throughout. The algicidal activity score in the data set on Spirogyra (1 ppm) and in the data set on Spirogyra (5 ppm) was 0 in each case.

Consider `CCC(C)(C)c1ccc(O)c(C(=O)Nc2cccc(SC)c2)c1` [compound 22], for which the algicidal activity score with Spirogyra (1 ppm) is recorded as 10; in the data set with Spirogyra (5 ppm) it was 0.

`CCC(C)(C)c1ccc(O)c(C(=O)Nc2ccc([N+](=O)[O-])cc2OC)c1` [compound 23]: the “number of dead barnacles” value in the data set with barnacles (1 ppm) is recorded as 6; in the data set with barnacles (5 ppm), 30. In addition, the MIC in data set [1] and in data set [2] was 5 µg/mL (≈ 14 µM) each time. In addition, the algicidal activity score in the data set on Spirogyra (1 ppm) and with Spirogyra (5 ppm) was 0 throughout.

Turning to `Cc1cc([N+](=O)[O-])ccc1NC(=O)c1cc(C(C)(C)CC(C)(C)C)ccc1O` [compound 24], the MIC in data set [1] and in data set [2] was 1 µg/mL (≈ 2.6 µM) each time.
